Our source for the Emax and EC50 values is patent US12552790B2, “Positive modulators of the muscarinic acetylcholine receptor M4” (Vanderbilt University, priority 2023, dated 2026).

The test addresses T1, Human M4 (Homo sapiens, UniProt P08173).
T1 construct: expressed in transfected cells
T1 sequence (P08173 1-479): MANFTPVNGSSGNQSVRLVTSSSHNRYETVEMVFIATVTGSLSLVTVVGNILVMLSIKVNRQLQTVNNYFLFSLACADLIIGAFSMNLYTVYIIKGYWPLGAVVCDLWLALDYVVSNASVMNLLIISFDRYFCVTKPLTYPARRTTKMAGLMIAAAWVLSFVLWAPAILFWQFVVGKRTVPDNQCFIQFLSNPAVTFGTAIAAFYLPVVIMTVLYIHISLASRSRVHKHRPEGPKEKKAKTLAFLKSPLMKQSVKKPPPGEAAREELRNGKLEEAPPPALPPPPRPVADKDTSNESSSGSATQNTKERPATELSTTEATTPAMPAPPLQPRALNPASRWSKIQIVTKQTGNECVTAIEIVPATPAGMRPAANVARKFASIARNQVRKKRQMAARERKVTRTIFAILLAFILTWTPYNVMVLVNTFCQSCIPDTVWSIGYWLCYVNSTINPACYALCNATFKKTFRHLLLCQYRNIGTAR
Nature of the test: M4 cell-based functional assay, calcium mobilization, potentiation of ACh EC20. The following applies: for Emax at 30 µM: % ACh maximum at 30 μM; for EC50: CHO-K1 hM4-Gqi5 cells, calcium flux, ACh EC20. Put shortly:
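CHO-K1 cells stably co-expressing human M4 and chimeric Gqi5, loaded with Fluo-4-AM, read by calcium fluorescence (ex 480/em 530 nm). Compound (10-point 1:3 series) added ~140 s before an EC20 ACh challenge, then EC80 ACh. Response expressed as fold over basal, normalized to maximal ACh response.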
For orientation: Calcium flux is commonly read through the fluorescence of an indicator in the cells.

For `[2H]C1([2H])Oc2ccc(OC3CCN(c4nc5c(cc4C)C(=O)NC5)CC3)cc2OC1([2H])[2H]` [Compound 3, 2-(4-((2,3-dihydrobenzo[b][1,4]dioxin-6-yl-2,2,3,3-d4)oxy)piperidin-1-yl)-3-methyl-6,7-dihydro-5H-pyrrolo[3,4-b]pyridin-5-one], the Emax (commonly the greatest response seen or fitted, relative to the assay's reference) at 30 µM is 96% and the EC50 – broadly, the concentration giving half of the maximal effect – worked out at 2 nM.

As for `[2H]C1([2H])Oc2ccc(OC3CCN(c4nc5nn(C)c(=O)n5c(C)c4C)CC3)cc2OC1([2H])[2H]` [Compound A10, 7-(4-((2,3-dihydrobenzo[b][1,4]dioxin-6-yl-2,2,3,3-d4)oxy)piperidin-1-yl)-2,5,6-trimethyl-[1,2,4]triazolo[4,3-a]pyrimidin-3(2H)-one], the Emax at 30 µM was 96% and the EC50 was 2 nM.

For the compound `[2H]C1([2H])Oc2ccc(OC3CCN(c4nc5nn(C)c(=O)n5cc4C)CC3)cc2OC1([2H])[2H]` [Compound A6, 7-(4-((2,3-dihydrobenzo[b][1,4]dioxin-6-yl-2,2,3,3-d4)oxy)piperidin-1-yl)-2,6-dimethyl-[1,2,4]triazolo[4,3-a]pyrimidin-3(2H)-one], the maximum response (Emax) at 30 µM worked out at 90% and the EC50 stood at 7 nM.
